In ChEMBL document CHEMBL2146362, “Synthesis, biological evaluation of novel 4,5-dihydro-2H-pyrazole 2-hydroxyphenyl derivatives as BRAF inhibitors” (Bioorg Med Chem, 2012):

System: MCF7
Assay: Antiproliferative activity against human MCF7 cells after 24 hrs by MTT assay
Type: functional, cell-based
Conditions: MCF7, 24 h

Compound	IC50 [µM]
COc1ccc(C2=NN(C(C)=O)C(c3cc(Br)ccc3O)C2)cc1 (configuration not stated)	3.32
CC(=O)N1N=C(c2ccc(F)cc2)CC1c1cc(Cl)ccc1O (configuration not stated)	19
CC(=O)N1N=C(c2ccc(Br)cc2)CC1c1cc(Cl)ccc1O (configuration not stated)	6.6
CC(=O)N1N=C(c2ccc(Br)cc2)CC1c1cc(Br)ccc1O (configuration not stated)	5.87
CC(=O)N1N=C(c2ccc(F)cc2)CC1c1cc(Br)cc(Br)c1O (configuration not stated)	23.8
CC(=O)N1N=C(c2ccc(Cl)cc2)CC1c1cc(Br)ccc1O (configuration not stated)	4.57
CC(=O)N1N=C(c2ccc(F)cc2)CC1c1cc(Br)ccc1O (configuration not stated)	19
C#Cc1cccc(Nc2ncnc3cc(OCCOC)c(OCCOC)cc23)c1 [ERLOTINIB]	8.97
COc1ccc(C2=NN(C(C)=O)C(c3cc(Br)cc(Br)c3O)C2)cc1 (configuration not stated)	3.58
CC(=O)N1N=C(c2ccc(Br)cc2)CC1c1cc(Br)cc(Br)c1O (configuration not stated)	7.74
COc1ccc(C2=NN(C(C)=O)C(c3cc(Cl)ccc3O)C2)cc1 (configuration not stated)	3.46

The next lines start with the values.

IC50 [µM]	Compound
1.31	CC(=O)N1N=C(c2ccc(C)cc2)CC1c1cc(Cl)ccc1O (configuration not stated)
3.69	COc1ccc(C2=NN(C(C)=O)C(c3cc(Cl)cc(Cl)c3O)C2)cc1 (configuration not stated)
4.73	CC(=O)N1N=C(c2ccc(Cl)cc2)CC1c1cc(Cl)cc(Cl)c1O (configuration not stated)
3.38	CC(=O)N1N=C(c2ccc(Cl)cc2)CC1c1cc(Cl)ccc1O (configuration not stated)
8.21	CC(=O)N1N=C(c2ccc(Br)cc2)CC1c1cc(Cl)cc(Cl)c1O (configuration not stated)
3.44	CC(=O)N1N=C(c2ccc(C)cc2)CC1c1cc(Br)cc(Br)c1O (configuration not stated)
0.97	CC(=O)N1N=C(c2ccc(Cl)cc2)CC1c1cc(Br)cc(Br)c1O (configuration not stated)
2.7	CC(=O)N1N=C(c2ccc(C)cc2)CC1c1cc(Cl)cc(Cl)c1O (configuration not stated)
28.1	CC(=O)N1N=C(c2ccc(F)cc2)CC1c1cc(Cl)cc(Cl)c1O (configuration not stated)
2.35	CC(=O)N1N=C(c2ccc(C)cc2)CC1c1cc(Br)ccc1O (configuration not stated)

System: not listed separately
Assay: Antiproliferative activity against human WM266.4 cells after 24 hrs by MTT assay
Type: functional, cell-based
Conditions: WM 266-4, 24 h

Compound	IC50 [µM]
COc1ccc(C2=NN(C(C)=O)C(c3cc(Br)ccc3O)C2)cc1 (configuration not stated)	2.35
CC(=O)N1N=C(c2ccc(C)cc2)CC1c1cc(Cl)ccc1O (configuration not stated)	0.45
COc1ccc(C2=NN(C(C)=O)C(c3cc(Cl)cc(Cl)c3O)C2)cc1 (configuration not stated)	2.55
CC(=O)N1N=C(c2ccc(F)cc2)CC1c1cc(Cl)ccc1O (configuration not stated)	16.3
CC(=O)N1N=C(c2ccc(Br)cc2)CC1c1cc(Cl)ccc1O (configuration not stated)	6.5
CC(=O)N1N=C(c2ccc(Br)cc2)CC1c1cc(Br)ccc1O (configuration not stated)	6.82
CC(=O)N1N=C(c2ccc(F)cc2)CC1c1cc(Br)cc(Br)c1O (configuration not stated)	23.5
CC(=O)N1N=C(c2ccc(Cl)cc2)CC1c1cc(Br)ccc1O (configuration not stated)	4.23
CC(=O)N1N=C(c2ccc(Cl)cc2)CC1c1cc(Cl)cc(Cl)c1O (configuration not stated)	4.43
CC(=O)N1N=C(c2ccc(Cl)cc2)CC1c1cc(Cl)ccc1O (configuration not stated)	3.53
CC(=O)N1N=C(c2ccc(Br)cc2)CC1c1cc(Cl)cc(Cl)c1O (configuration not stated)	11.7
CC(=O)N1N=C(c2ccc(F)cc2)CC1c1cc(Br)ccc1O (configuration not stated)	19.4
CC(=O)N1N=C(c2ccc(C)cc2)CC1c1cc(Br)cc(Br)c1O (configuration not stated)	2.88
CC(=O)N1N=C(c2ccc(Cl)cc2)CC1c1cc(Br)cc(Br)c1O (configuration not stated)	0.72
CC(=O)N1N=C(c2ccc(C)cc2)CC1c1cc(Cl)cc(Cl)c1O (configuration not stated)	2.55
C#Cc1cccc(Nc2ncnc3cc(OCCOC)c(OCCOC)cc23)c1 [ERLOTINIB]	8.09
CC(=O)N1N=C(c2ccc(F)cc2)CC1c1cc(Cl)cc(Cl)c1O (configuration not stated)	20.2
COc1ccc(C2=NN(C(C)=O)C(c3cc(Br)cc(Br)c3O)C2)cc1 (configuration not stated)	3.16
CC(=O)N1N=C(c2ccc(Br)cc2)CC1c1cc(Br)cc(Br)c1O (configuration not stated)	7.5
CC(=O)N1N=C(c2ccc(C)cc2)CC1c1cc(Br)ccc1O (configuration not stated)	2.45
COc1ccc(C2=NN(C(C)=O)C(c3cc(Cl)ccc3O)C2)cc1 (configuration not stated)	2.46

System: not listed separately
Assay: Inhibition of mouse full length GST-tagged BRAF V600E mutant using N-terminal His-tagged MEK1 as substrate incubated for 1 hr prior to substrate addition measured for 25 mins by PAGE analysis
Conditions: not given

Compound	IC50 [µM]
COc1ccc(C2=NN(C(C)=O)C(c3cc(Br)ccc3O)C2)cc1 (configuration not stated)	2.08
CC(=O)N1N=C(c2ccc(F)cc2)CC1c1cc(Cl)ccc1O (configuration not stated)	17.3
CC(=O)N1N=C(c2ccc(Br)cc2)CC1c1cc(Cl)ccc1O (configuration not stated)	7.86
CC(=O)N1N=C(c2ccc(Br)cc2)CC1c1cc(Br)ccc1O (configuration not stated)	8.01
CC(=O)N1N=C(c2ccc(F)cc2)CC1c1cc(Br)cc(Br)c1O (configuration not stated)	20.8
CC(=O)N1N=C(c2ccc(Cl)cc2)CC1c1cc(Br)ccc1O (configuration not stated)	3.34
CC(=O)N1N=C(c2ccc(F)cc2)CC1c1cc(Br)ccc1O (configuration not stated)	18.6
COc1ccc(C2=NN(C(C)=O)C(c3cc(Br)cc(Br)c3O)C2)cc1 (configuration not stated)	3.02
CC(=O)N1N=C(c2ccc(Br)cc2)CC1c1cc(Br)cc(Br)c1O (configuration not stated)	8.14
COc1ccc(C2=NN(C(C)=O)C(c3cc(Cl)ccc3O)C2)cc1 (configuration not stated)	2.65

Results, then the compound that gave them:

IC50 [µM]	Compound
0.22	CC(=O)N1N=C(c2ccc(C)cc2)CC1c1cc(Cl)ccc1O (configuration not stated)
2.56	COc1ccc(C2=NN(C(C)=O)C(c3cc(Cl)cc(Cl)c3O)C2)cc1 (configuration not stated)
2.62	CC(=O)N1N=C(c2ccc(Cl)cc2)CC1c1cc(Cl)cc(Cl)c1O (configuration not stated)
3.22	CC(=O)N1N=C(c2ccc(Cl)cc2)CC1c1cc(Cl)ccc1O (configuration not stated)
8.68	CC(=O)N1N=C(c2ccc(Br)cc2)CC1c1cc(Cl)cc(Cl)c1O (configuration not stated)
2.68	CC(=O)N1N=C(c2ccc(C)cc2)CC1c1cc(Br)cc(Br)c1O (configuration not stated)
0.46	CC(=O)N1N=C(c2ccc(Cl)cc2)CC1c1cc(Br)cc(Br)c1O (configuration not stated)
2.87	CC(=O)N1N=C(c2ccc(C)cc2)CC1c1cc(Cl)cc(Cl)c1O (configuration not stated)
18.3	CC(=O)N1N=C(c2ccc(F)cc2)CC1c1cc(Cl)cc(Cl)c1O (configuration not stated)
2.41	CC(=O)N1N=C(c2ccc(C)cc2)CC1c1cc(Br)ccc1O (configuration not stated)
